A short description of the data set: Observation of haloprogin / 2-octyl cyanoacrylate monomer composition after preparation. Type of data set: physicochemical. Conditions: 30 mg haloprogin in 2 mL 2-octyl cyanoacrylate monomer, observed at about one minute and at least twenty-four hours after preparation. As to the method:
A 2-octyl cyanoacrylate monomer composition is prepared by adding 30 mg of haloprogin, an anti-fungal agent, to 2 mL of 2-octyl cyanoacrylate monomer. The mixture is sealed in a glass vial and stirred. The characteristics of the composition are observed at about one minute after preparation and later at least twenty-four hours after preparation.

As to `Clc1cc(Cl)c(OCC#CI)cc1Cl` [haloprogin], the “premature polymerization caused in the monomer” value was “does not cause premature polymerization”. The “solubility of haloprogin in the monomer” value (sealed glass vial, stirred) is “soluble”.

The values above are taken from patent publication US20030007949A1, “Adhesive treatment for tinea corporis” (CLOSURE MEDICAL CORPORATION, priority 2001, published 2003).
